{"source": "patent US20150038415A1", "about": "“PROCESS FOR THE MANUFACTURING OF A DRUG DELIVERY SYSTEM BASED ON A POLYMER COMPRISING A DISPERSED BIOACTIVE AGENT” (DSM IP Assets B.V., priority 2011, published 2015)", "tested_on": "Nb2 (rat lymphoma) cells", "experiment": "Bioactivity of released rHGH by Nb2 cell proliferation assay", "type": "cell-based", "experimental": "Bioactivity of rHGH present in release samples was assessed by measuring its influence on the proliferation of Nb2 (rat lymphoma) cells.^1 1 Bozzola, M. et. al. Evaluation of growth hormone bioactivity using the Nb2 cell bioassay in children with growth disorders. J. Endocrinol Invest.1998, 21, 765-770\nThe method used is described below:^2 2 Tanaka. T. et. al. A new sensitive and specific bioassay for lactogenic hormones: measurement of prolactin and growth hormone in human serum. J. Clin. Endocrinol. Metab.1980, 51, 1058-1063 […]\nCells were then counted with a Guava Easycyte (Millipore) capillary cytometer using Viacount reagent (Millipore) to stain cells, according to the recommendations of the manufacturer. […]\nSamples originating from the release experiments were diluted in incubation medium to reach an expected (according to HPLC quantification) concentration of rHGH between 80 and 280 pg/mL(concentration range in which growth of Nb2 cells is rHGH concentration-dependent). […]\nAfter incubation, cells were stained with 50 uL Viacount reagent and viable cells were counted by capillary cytometry.\nBioactivity of rHGH released from the fibers was measured through use of the cell-proliferation assay described above. Release samples were introduced to the cell culture medium and the effect of rHGH on cell proliferation was measured via cell counting with capillary cytometry.", "note": "Entries after “also recorded” stand apart in the source; their conditions may differ.", "data": [{"substance": "rHGH: lyophilized powder of recombinant human growth hormone, dispersed in PEA-III-Ac-Bz film cut into fibers", "values": [{"measurement": "Bioactivity of rHGH released from the fibers (cell proliferation assay)", "setting": "rHGH released from PEA-III-Ac-Bz fibers into release medium (PBS pH 7.4 with BSA and penicillin) at 37° C., Nb2 cells incubated 72 hours", "result": "retained; also recorded: bioactive; also recorded: retains its bioactivity"}, {"measurement": "Cell response to release samples (cell counting with capillary cytometry)", "setting": "release samples taken at 1 h, 3 h, 6 h, 24 h & 48 h from PEA-III-Ac-Bz fibers with approximately 1-2 wt % rHGH", "result": "positive cell response"}]}]}
